In PubChem BioAssay AID248 (DTP/NCI, 2004):
Where “and” joins values, the source holds several entries; their conditions need not be identical. Equal values may be shown once. Inconclusive results and toxic doses are left out. Cut-off read from the data, not from the text of the source: active = T/C of 150% or more; inactive = T/C below 125%.

Test system: L1210 leukemia ip in BDF1 mice, survival T/C
Experiment: NCI In Vivo Anticancer Drug Screen. Data for tumor model L1210 Leukemia (intraperitoneal) in B6D2F1 (BDF1) mice
Conditions: endpoint: mean survival time, higher = longer survival
How it was run: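 Mice bearing the transplanted tumor received compound or vehicle. Survival of the treated group was divided by that of the vehicle-treated control group to give the ratio.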

[1] = dose: 100.0 mg/kg/injection, schedule: Q01DX009 (ip), vehicle: saline with Tween-80
[2] = dose: 100.0 mg/kg/injection, schedule: Q04DX003 (ip), vehicle: saline with Tween-80
[3] = dose: 200.0 mg/kg/injection, schedule: Q01DX009 (ip), vehicle: saline with Tween-80
[4] = dose: 200.0 mg/kg/injection, schedule: Q04DX003 (ip), vehicle: saline with Tween-80
[5] = dose: 400.0 mg/kg/injection, schedule: Q01DX009 (ip), vehicle: saline with Tween-80
[6] = dose: 400.0 mg/kg/injection, schedule: Q04DX003 (ip), vehicle: saline with Tween-80
[7] = dose: 100.0 mg/kg/injection, schedule: Q04DX002 (ip), vehicle: saline
[8] = dose: 200.0 mg/kg/injection, schedule: Q04DX002 (ip), vehicle: saline
[9] = dose: 100.0 mg/kg/injection, schedule: Q04DX003 (ip), vehicle: Klucel (hydroxypropylcellulose) (HPC)
[10] = dose: 200.0 mg/kg/injection, schedule: Q04DX003 (ip), vehicle: Klucel (hydroxypropylcellulose) (HPC)
[11] = dose: 100.0 mg/kg/injection, schedule: Q04DX002 (ip), vehicle: Klucel (hydroxypropylcellulose) (HPC)
[12] = dose: 200.0 mg/kg/injection, schedule: Q04DX002 (ip), vehicle: Klucel (hydroxypropylcellulose) (HPC)
[13] = dose: 400.0 mg/kg/injection, schedule: Q04DX002 (ip), vehicle: Klucel (hydroxypropylcellulose) (HPC)

Measured: T/C

CCOc1cc(/C=N/NC(=O)C(O)C(O)C(O)C(O)CO)ccc1O (configuration not stated)
inactive: [1] 98 % of control and 103 % of control | dose: 100.0 mg/kg/injection, schedule: Q04DX002 (ip), vehicle: saline with Tween-80 100 % of control and 90 % of control | [2] 95 % of control | [3] 95 % of control and 91 % of control | dose: 200.0 mg/kg/injection, schedule: Q04DX002 (ip), vehicle: saline with Tween-80 108 % of control and 116 % of control | [4] 95 % of control | [5] 88 % of control and 90 % of control | dose: 400.0 mg/kg/injection, schedule: Q04DX002 (ip), vehicle: saline with Tween-80 90 % of control and 91 % of control | [6] 93 % of control

CCc1cc2c(cc1C(=O)CBr)C(C)(C)CCC2(C)C
inactive: dose: 6.25 mg/kg/injection, schedule: Q01DX009 (ip), vehicle: saline with Tween-80 103 % of control | dose: 12.5 mg/kg/injection, schedule: Q01DX009 (ip), vehicle: saline with Tween-80 109 % of control | dose: 12.5 mg/kg/injection, schedule: Q04DX003 (ip), vehicle: saline 100 % of control | dose: 25.0 mg/kg/injection, schedule: Q04DX003 (ip), vehicle: saline 102 % of control

CNCCC(=O)C1CCC(OC)CC1 (configuration not stated)
inactive: [7] 92 % of control | [8] 110 % of control

Cc1ccc(C(=O)c2ccc(C)cc2)cc1
inactive: dose: 12.5 mg/kg/injection, schedule: Q04DX002 (ip), vehicle: Klucel (hydroxypropylcellulose) (HPC) 91 % of control | dose: 25.0 mg/kg/injection, schedule: Q04DX002 (ip), vehicle: Klucel (hydroxypropylcellulose) (HPC) 94 % of control | dose: 50.0 mg/kg/injection, schedule: Q04DX002 (ip), vehicle: Klucel (hydroxypropylcellulose) (HPC) 97 % of control | dose: 100.0 mg/kg/injection, schedule: Q01DX009 (ip), vehicle: Klucel (hydroxypropylcellulose) (HPC) 101 % of control | [7] 101 % of control | [9] 100 % of control | dose: 200.0 mg/kg/injection, schedule: Q01DX009 (ip), vehicle: Klucel (hydroxypropylcellulose) (HPC) 97 % of control | [8] 101 % of control | [10] 89 % of control | dose: 400.0 mg/kg/injection, schedule: Q01DX009 (ip), vehicle: Klucel (hydroxypropylcellulose) (HPC) 98 % of control | dose: 400.0 mg/kg/injection, schedule: Q04DX003 (ip), vehicle: Klucel (hydroxypropylcellulose) (HPC) 100 % of control

CC(=O)Nc1ccc(N=Nc2ccccc2)cc1C
inactive: dose: 50.0 mg/kg/injection, schedule: Q04DX003 (ip), vehicle: Klucel (hydroxypropylcellulose) (HPC) 100 % of control | [9] 96 % of control | [10] 96 % of control

COC1CCC(C2=NC3CCCCC3SC2)CC1 (configuration not stated)
inactive: dose: 100.0 mg/kg/injection, schedule: Q04DX002 (sc), vehicle: olive oil, sesame oil, peanut oil 97 % of control | dose: 200.0 mg/kg/injection, schedule: Q04DX002 (sc), vehicle: olive oil, sesame oil, peanut oil 107 % of control | dose: 400.0 mg/kg/injection, schedule: Q04DX002 (sc), vehicle: olive oil, sesame oil, peanut oil 100 % of control

CC1NNC(=O)c2ccccc21 (configuration not stated)
inactive: dose: 100.0 mg/kg/injection, schedule: Q01DX001 (ip), vehicle: saline 95 % of control | dose: 200.0 mg/kg/injection, schedule: Q01DX001 (ip), vehicle: saline 96 % of control | dose: 400.0 mg/kg/injection, schedule: Q01DX001 (ip), vehicle: saline 94 % of control

CC(=O)NCC(S)c1ccc(Cl)cc1 (configuration not stated)
inactive: [1] 103 % of control | [2] 112 % of control | [3] 103 % of control | [4] 93 % of control | [5] 103 % of control | [6] 88 % of control

O=C(Nc1ccc([N+](=O)[O-])cc1Cl)N(CCO)C1CCCCC1
inactive: [1] 96 % of control | [2] 102 % of control | [3] 106 % of control | [4] 101 % of control | [5] 116 % of control | [6] 90 % of control

CC(=O)NC1C(OC(=O)c2ccccc2)OC2COCOC2C1OC(=O)c1ccccc1 (configuration not stated)
inactive: dose: 100.0 mg/kg/injection, schedule: Q01DX001 (ip), vehicle: saline with Tween-80 90 % of control | dose: 200.0 mg/kg/injection, schedule: Q01DX001 (ip), vehicle: saline with Tween-80 97 % of control | dose: 400.0 mg/kg/injection, schedule: Q01DX001 (ip), vehicle: saline with Tween-80 92 % of control

NC(Cc1ccc([N+](=O)[O-])cc1)C(=O)O (configuration not stated)
inactive: dose: 100.0 mg/kg/injection, schedule: Q01DX001 (ip), vehicle: saline sonified 116 % of control | [1] 100 % of control and 98 % of control | dose: 100.0 mg/kg/injection, schedule: Q04DX003 (ip), vehicle: saline 111 % of control | dose: 200.0 mg/kg/injection, schedule: Q01DX001 (ip), vehicle: saline sonified 103 % of control | [3] 95 % of control | dose: 200.0 mg/kg/injection, schedule: Q04DX003 (ip), vehicle: saline 101 % of control | dose: 400.0 mg/kg/injection, schedule: Q01DX001 (ip), vehicle: saline sonified 103 % of control | [5] 100 % of control and 92 % of control | dose: 400.0 mg/kg/injection, schedule: Q04DX003 (ip), vehicle: saline 90 % of control

CC(C)=C(CSC#N)S(=O)(=O)c1ccc(C)cc1
inactive: dose: 3.12 mg/kg/injection, schedule: Q01DX009 (ip), vehicle: Klucel (hydroxypropylcellulose) (HPC) 103 % of control | dose: 6.25 mg/kg/injection, schedule: Q01DX009 (ip), vehicle: Klucel (hydroxypropylcellulose) (HPC) 101 % of control | dose: 12.5 mg/kg/injection, schedule: Q01DX009 (ip), vehicle: Klucel (hydroxypropylcellulose) (HPC) 97 % of control

Brc1cccc[n+]1Cc1ccc(C[n+]2ccccc2Br)cc1
inactive: dose: 2.66 mg/kg/injection, schedule: Q01DX Z (ip), vehicle: saline 98 % of control

Cc1c2ccccc2c(CNCCSCCCl)c2ccc3ccccc3c12
inactive: dose: 50.0 mg/kg/injection, schedule: Q01DX009 (ip), vehicle: saline 119 % of control | dose: 150.0 mg/kg/injection, schedule: Q01DX009 (ip), vehicle: saline 109 % of control | dose: 167.0 mg/kg/injection, schedule: Q01DX009 (ip), vehicle: saline 94 % of control

N#CC(Nc1ccccc1C(N)=O)c1ccccc1 (configuration not stated)
inactive: dose: 100.0 mg/kg/injection, schedule: Q01DX009 (ip), vehicle: saline 95 % of control | dose: 200.0 mg/kg/injection, schedule: Q01DX009 (ip), vehicle: saline 106 % of control | dose: 400.0 mg/kg/injection, schedule: Q01DX009 (ip), vehicle: saline 91 % of control

Cc1ccc(Cl)c(NC(=O)c2ccccc2Cl)c1
inactive: [11] 97 % of control | [12] 97 % of control | [13] 104 % of control

N#CC(C#N)=C1SCS1
inactive: dose: 6.25 mg/kg/injection, schedule: Q04DX002 (ip), vehicle: saline with Tween-80 103 % of control | dose: 12.5 mg/kg/injection, schedule: Q04DX002 (ip), vehicle: saline with Tween-80 111 % of control | dose: 25.0 mg/kg/injection, schedule: Q04DX002 (ip), vehicle: saline with Tween-80 114 % of control

O=C(Nc1nccs1)c1ccccc1F
inactive: [11] 87 % of control | [12] 97 % of control | [13] 102 % of control

O=C(O)c1cc([N+](=O)[O-])ccc1Cl
inactive: [11] 117 % of control | [12] 103 % of control | [13] 98 % of control

CCCCSc1n[nH]c(=O)nc1SC
inactive: dose: 100.0 mg/kg/injection, schedule: Q01DX001 (ip), vehicle: acetone 104 % of control
